Results taken from article PMC6277767, “Broad and Region-Specific Impacts of the Synthetic Cannabinoid CP 55,940 in Adolescent and Adult Female Mouse Brains” (Frontiers in Molecular Neuroscience, 2018).

Tested on: CD1 female mouse brain lipidome
Assay: Brain-region lipid levels (HPLC/MS/MS lipidomics) 2 h after single i.p. 3 mg/kg CP 55,940 vs vehicle
Format: in vivo
Settings: thalamus
Experimental: The Bloomington Institutional Animal Care and Use Committee of Indiana University reviewed and approved the animal procedures. Female mice from the CD1 strain were utilized to match our study examining THC’s effects on the brain lipidome ([Leishman et al., 2018]). Mice were given a single i.p. injection of either 3 mg/kg CP or 1:1:18 cremophor:ethanol:saline vehicle (please refer to the section “3 mg/kg CP Is Relevant for Synthetic Cannabinoid Abuse and Has Stronger Effects on the Female Mouse Brain Lipidome During Adolescence” for a justification of dose and use of female mice). Three different age groups were given injections: PND 35 and PND 50 adolescents, and adult mice (PND 113). At least eight mice in each age group received CP and at least eight received vehicle. Matching the THC study time course ([Leishman et al., 2018]), mice were sacrificed via rapid decapitation 2 h after injection. Brains were immediately removed and flash-frozen in liquid nitrogen, and then stored at -80°C until dissections were performed. Brains were dissected on an ice-cold dissection plate into the following regions: STR, HIPP, CER, THAL, CTX, HYP, MID, and STEM. These abbreviations for these brain areas will be used exclusively when discussing the results generated by these specific dissections. Each dissected area was immediately placed in liquid nitrogen and then stored at -80°C until used for lipid extraction.
Tissue extracts were performed as previously described ([Bradshaw et al., 2006]; [Stuart et al., 2013]; [Raboune et al., 2014]; [Leishman et al., 2016a],[b], [2017], [2018]). First, samples were shock frozen in liquid nitrogen, weighed, and transferred to a centrifuge tube. The mass of the largest sample was multiplied by 50 to determine how many milliliters of HPLC-grade methanol (Fisher, Fair Lawn, NJ, United States) to add. Then, samples were spiked with 500 pmol deuterium-labeled NAGly (d8NAGly; Cayman Chemical, Ann Arbor, MI, United States). Samples were placed on ice in darkness for 2 h then individually homogenized and centrifuged at 19,000 × g for 20 min at 20°C. Supernatants were diluted with HPLC water (purified in house) to make a solution of 75% water, 25% supernatant. Lipids were partially purified on C18 solid phase extraction columns (Agilent, Palo Alto, CA, United States). A series of four elutions with 1.5 mL of 60%, 75%, 85%, and 100% methanol were collected ([Stuart et al., 2013]; [Leishman et al., 2016a],[b], [2018]).
As previously described ([Bradshaw et al., 2006]; [Tan et al., 2006]; [Smoum et al., 2010]; [Stuart et al., 2013]; [Tortoriello et al., 2013]; [Raboune et al., 2014]; [Leishman et al., 2016a],[b], [2017], [2018]), samples were analyzed using an Applied Biosystems API 3000 triple quadrupole mass spectrometer with electrospray ionization (Foster City, CA, United States). Using an Agilent XDB-C18 reversed phase analytical column and optimized mobile phase gradients, 20 μL from each elution were chromatographed. Two Shimadzu 10ADvp pumps (Columbia, MD, United States) provided the pressure for gradient elution. Mobile phase A: 20% methanol, 80% water (v/v) and 1 mM ammonium acetate (Sigma, St. Louis, MO, United States). Mobile phase B: 100% methanol, 1 mM ammonium acetate. Every method run began with 0% mobile phase B, reached 100% mobile phase B flowing at 0.2 mL/min, and gradually returned to 0% mobile phase B.
This screening library will be referred to as the lipidome when discussing data from this study. HPLC/MS/MS data were analyzed using Analyst software (Applied Biosystems) ([Bradshaw et al., 2006]; [Tan et al., 2006]; [Stuart et al., 2013]; [Tortoriello et al., 2013]; [Raboune et al., 2014]; [Leishman et al., 2016a],[b], [2017], [2018]). Chromatograms (Supplementary Figure 3) were generated by determining the retention time of analytes from the analytical column with a [M-1] or [M+1] parent peak and a fragmentation peak corresponding to the programmed values. […]

[1] = WT adult female mice, 3mg/kg CP 55,940

CCCCCCC(C)(C)c1ccc([C@@H]2C[C@H](O)CC[C@H]2CCCO)c(O)c1 [CP 55,940]
N-docosahexaenoyl ethanolamine level, Mean [1]: 2.99E-11 | N-docosahexaenoyl glycine level, Mean [1]: 1.3E-13 | N-docosahexaenoyl phenylalanine level, Mean [1]: 4.66E-14 | N-linoleoyl GABA level, Mean [1]: 7.91E-12 | N-linoleoyl alanine level, Mean [1]: 5.44E-13 | N-linoleoyl ethanolamine level, Mean [1]: 1.72E-11 | N-linoleoyl glycine level, Mean [1]: 9.08E-14 | N-linoleoyl serine level, Mean [1]: 4.53E-11 | N-oleoyl GABA level, Mean [1]: 1.73E-11 | N-oleoyl alanine level, Mean [1]: 2.34E-12 | N-oleoyl ethanolamine level, Mean [1]: 1.6E-10 | N-oleoyl glycine level, Mean [1]: 4.19E-13 | N-oleoyl leucine level, Mean [1]: 7.81E-13 | N-oleoyl methionine level, Mean [1]: 5.74E-13 | N-oleoyl phenylalanine level, Mean [1]: 4.73E-13 | N-oleoyl serine level, Mean [1]: 2E-10 | N-palmitoyl GABA level, Mean [1]: 2.74E-11 | N-palmitoyl alanine level, Mean [1]: 2.22E-12 | N-palmitoyl ethanolamine level, Mean [1]: 6.49E-11 | N-palmitoyl glycine level, Mean [1]: 2.5E-12 | N-palmitoyl leucine level, Mean [1]: 2.46E-12 | N-palmitoyl methionine level, Mean [1]: 3.82E-12 | N-palmitoyl phenylalanine level, Mean [1]: 4.13E-13 | N-palmitoyl serine level, Mean [1]: 1.13E-11 | N-palmitoyl tyrosine level, Mean [1]: 3.42E-13 | N-palmitoyl valine level, Mean [1]: 1.9E-13 | N-stearoyl GABA level, Mean [1]: 1.7E-11 | N-stearoyl alanine level, Mean [1]: 2.97E-12 | N-stearoyl ethanolamine level, Mean [1]: 1.06E-11 | N-stearoyl glycine level, Mean [1]: 1.83E-12 | N-stearoyl leucine level, Mean [1]: 1.05E-12 | N-stearoyl methionine level, Mean [1]: 4.98E-13 | N-stearoyl phenylalanine level, Mean [1]: 2.37E-13 | N-stearoyl serine level, Mean [1]: 2.33E-11 | N-stearoyl tyrosine level, Mean [1]: 8.82E-14 | Oleic acid level, Mean [1]: 4.55E-10 | PGE2 level, Mean [1]: 1.93E-10 | PhosphoLEA level, Mean [1]: 3.87E-12 | 2-arachidonoyl glycerol: Direction (relative to Veh) (adult, 3 mg/kg CP 55,940): ↓ | 2-arachidonoyl glycerol: Magnitude (x Veh level) (adult, 3 mg/kg CP 55,940): 0.81 x Veh level | 2-linoleoyl glycerol: Direction (relative to Veh) (adult, 3 mg/kg CP 55,940): ↓ | 2-linoleoyl glycerol: Magnitude (x Veh level) (adult, 3 mg/kg CP 55,940): 0.77 x Veh level | 6-ketoPGF1α: Direction (relative to Veh) (adult, 3 mg/kg CP 55,940): ↑ | 6-ketoPGF1α: Magnitude (x Veh level) (adult, 3 mg/kg CP 55,940): 1.23 x Veh level | Arachidonic acid: Direction (relative to Veh) (adult, 3 mg/kg CP 55,940): ↓ | Arachidonic acid: Magnitude (x Veh level) (adult, 3 mg/kg CP 55,940): 0.83 x Veh level | N-arachidonoyl GABA: Direction (relative to Veh) (adult, 3 mg/kg CP 55,940): ↓ | N-arachidonoyl GABA: Magnitude (x Veh level) (adult, 3 mg/kg CP 55,940): 0.80 x Veh level | N-arachidonoyl alanine: Direction (relative to Veh) (adult, 3 mg/kg CP 55,940): ↓ | N-arachidonoyl alanine: Magnitude (x Veh level) (adult, 3 mg/kg CP 55,940): 0.63 x Veh level | N-arachidonoyl ethanolamine: Direction (relative to Veh) (adult, 3 mg/kg CP 55,940): ↓ | N-arachidonoyl ethanolamine: Magnitude (x Veh level) (adult, 3 mg/kg CP 55,940): 0.81 x Veh level | N-arachidonoyl glycine: Direction (relative to Veh) (adult, 3 mg/kg CP 55,940): ↓ | N-arachidonoyl glycine: Magnitude (x Veh level) (adult, 3 mg/kg CP 55,940): 0.63 x Veh level | N-oleoyl ethanolamine: Direction (relative to Veh) (adult, 3 mg/kg CP 55,940): ↓ | N-oleoyl ethanolamine: Magnitude (x Veh level) (adult, 3 mg/kg CP 55,940): 0.79 x Veh level | N-palmitoyl GABA: Direction (relative to Veh) (adult, 3 mg/kg CP 55,940): ↑ | N-palmitoyl GABA: Magnitude (x Veh level) (adult, 3 mg/kg CP 55,940): 1.13 x Veh level | N-palmitoyl ethanolamine: Direction (relative to Veh) (adult, 3 mg/kg CP 55,940): ↓ | N-palmitoyl ethanolamine: Magnitude (x Veh level) (adult, 3 mg/kg CP 55,940): 0.86 x Veh level | N-palmitoyl leucine: Direction (relative to Veh) (adult, 3 mg/kg CP 55,940): ↑ | N-palmitoyl leucine: Magnitude (x Veh level) (adult, 3 mg/kg CP 55,940): 1.36 x Veh level | N-palmitoyl methionine: Direction (relative to Veh) (adult, 3 mg/kg CP 55,940): ↑ | N-palmitoyl methionine: Magnitude (x Veh level) (adult, 3 mg/kg CP 55,940): 1.25 x Veh level | N-palmitoyl valine: Direction (relative to Veh) (adult, 3 mg/kg CP 55,940): ↑ | N-palmitoyl valine: Magnitude (x Veh level) (adult, 3 mg/kg CP 55,940): 1.95 x Veh level | Oleic acid: Direction (relative to Veh) (adult, 3 mg/kg CP 55,940): ↓ | Oleic acid: Magnitude (x Veh level) (adult, 3 mg/kg CP 55,940): 0.78 x Veh level | 2-linoleoyl glycerol Direction (relative to Veh) (PND 35, 3 mg/kg CP 55,940): ↓ | 2-linoleoyl glycerol Magnitude (x Veh level) (PND 35, 3 mg/kg CP 55,940): 0.79 x Veh level | 6-ketoPGF1α Direction (relative to Veh) (PND 35, 3 mg/kg CP 55,940): ↓ | 6-ketoPGF1α Magnitude (x Veh level) (PND 35, 3 mg/kg CP 55,940): 0.77 x Veh level | N-arachidonoyl GABA Direction (relative to Veh) (PND 35, 3 mg/kg CP 55,940): ↓ | N-arachidonoyl GABA Magnitude (x Veh level) (PND 35, 3 mg/kg CP 55,940): 0.72 x Veh level | N-arachidonoyl alanine Magnitude (x Veh level) (PND 35, 3 mg/kg CP 55,940): 0.82 x Veh level | N-arachidonoyl alanine, Direction (relative to Veh) (PND 35, 3 mg/kg CP 55,940): ↓ | N-arachidonoyl ethanolamine, Direction (relative to Veh) (PND 35, 3 mg/kg CP 55,940): ↑ | N-arachidonoyl ethanolamine, Magnitude (x Veh level) (PND 35, 3 mg/kg CP 55,940): 1.21 x Veh level | N-arachidonoyl glycine Direction (relative to Veh) (PND 35, 3 mg/kg CP 55,940): ↓ | N-arachidonoyl glycine Magnitude (x Veh level) (PND 35, 3 mg/kg CP 55,940): 0.86 x Veh level | N-arachidonoyl phenylalanine, Direction (relative to Veh) (PND 35, 3 mg/kg CP 55,940): ↑ | N-arachidonoyl phenylalanine, Magnitude (x Veh level) (PND 35, 3 mg/kg CP 55,940): 1.20 x Veh level | N-arachidonoyl serine Direction (relative to Veh) (PND 35, 3 mg/kg CP 55,940): ↓ | N-arachidonoyl serine Magnitude (x Veh level) (PND 35, 3 mg/kg CP 55,940): 0.81 x Veh level | N-arachidonoyl taurine Direction (relative to Veh) (PND 35, 3 mg/kg CP 55,940): ↓ | N-arachidonoyl taurine Magnitude (x Veh level) (PND 35, 3 mg/kg CP 55,940): 0.87 x Veh level | N-docosahexaenoyl GABA Direction (relative to Veh) (PND 35, 3 mg/kg CP 55,940): ↓ | N-docosahexaenoyl GABA Magnitude (x Veh level) (PND 35, 3 mg/kg CP 55,940): 0.71 x Veh level | N-docosahexaenoyl alanine Direction (relative to Veh) (PND 35, 3 mg/kg CP 55,940): ↓ | N-docosahexaenoyl alanine Magnitude (x Veh level) (PND 35, 3 mg/kg CP 55,940): 0.69 x Veh level | N-docosahexaenoyl glycine Direction (relative to Veh) (PND 35, 3 mg/kg CP 55,940): ↓ | N-docosahexaenoyl glycine Magnitude (x Veh level) (PND 35, 3 mg/kg CP 55,940): 0.85 x Veh level | N-docosahexaenoyl leucine Direction (relative to Veh) (PND 35, 3 mg/kg CP 55,940): ↑ | N-docosahexaenoyl leucine Magnitude (x Veh level) (PND 35, 3 mg/kg CP 55,940): 1.78 x Veh level | N-docosahexaenoyl phenylalanine Direction (relative to Veh) (PND 35, 3 mg/kg CP 55,940): ↑ | N-docosahexaenoyl phenylalanine Magnitude (x Veh level) (PND 35, 3 mg/kg CP 55,940): 1.25 x Veh level | N-linoleoyl ethanolamine, Direction (relative to Veh) (PND 35, 3 mg/kg CP 55,940): ↑ | N-linoleoyl ethanolamine, Magnitude (x Veh level) (PND 35, 3 mg/kg CP 55,940): 1.29 x Veh level | N-oleoyl GABA Magnitude (x Veh level) (PND 35, 3 mg/kg CP 55,940): 0.81 x Veh level | N-oleoyl GABA direction (relative to Veh) (PND 35, 3 mg/kg CP 55,940): ↓ | N-oleoyl alanine Magnitude (x Veh level) (PND 35, 3 mg/kg CP 55,940): 0.84 x Veh level | N-oleoyl alanine direction (relative to Veh) (PND 35, 3 mg/kg CP 55,940): ↓
